The molecules below were run against T1, KRAS G12C 1-169, his-tagged protein, GDP-loaded (Homo sapiens, UniProt P01116, G12C) (assay: Covalent binding (% modification) to KRAS G12C by mass spectrometry). Conditions: covalent binding to KRAS G12C after a ten minute incubation period.
T1 construct: KRAS G12C 1-169, his-tagged protein, GDP-loaded
For C=CC(=O)N1CCN(c2nc(OCCN(CC)CC)nc3c(F)c(-c4c(O)cccc4F)c(Cl)cc23)[C@@H](C)C1 [Compound 9, 1-((3S)-4-(6-chloro-2-(2-(diethylamino)ethoxy)-8-fluoro-7-(2-fluoro-6-hydroxyphenyl)quinazolin-4-yl)-3-methylpiperazin-1-yl)prop-2-en-1-one], the Binding % was “++ (++ indicates binding activity from 50 to 90%)”.
For C=CC(=O)N1C[C@H](C)N(c2nc(OCCN(CC)CC)nc3c(F)c(-c4c(O)cccc4F)c(Cl)cc23)C[C@H]1C [Compound 48, 1-((2R,5S)-4-(6-chloro-2-(2-(diethylamino)ethoxy)-8-fluoro-7-(2-fluoro-6-hydroxyphenyl)quinazolin-4-yl)-2,5-dimethyl-piperazin-1-yl) prop-2-en-1-one], the Binding % was “++ (++ indicates binding activity from 50 to 90%)”.
With C=CC(=O)N1CCN(c2nc(N3CC(N(C)C)C3)nc3c(F)c(-c4c(C)ccc5cn[nH]c45)c(Cl)cc23)C[C@H]1C (atropisomer, axis not shown) [Compound 70, 1-((R)-4-((R)-6-chloro-2-(3-(dimethylamino)azetidin-1-yl)-8-fluoro-7-(6-methyl-1H-indazol-7-yl)quinazolin-4-yl)-2-methyl-piperazin-1-yl) prop-2-en-1-one] the Binding % was “+++ (+++ indicates binding activity greater than 90%)”.
In the case of C=CC(=O)N1CCN(c2nc(N3CC(N(C)C)C3)nc3c(F)c(-c4c(O)cccc4F)c(Cl)cc23)[C@@H](C)C1 [Compound 8, 1-((3 S)-4-(6-Chloro-2-(3-(Dimethylamino)Azetidin-1-Yl)-8-Fluoro-7-(2-Fluoro-6-Hydroxyphenyl)Quinazolin-4-Yl)-3-Methylpiperazin-1-Yl)Prop-2-En-1-One], the Binding % is reported as “+++ (+++ indicates binding activity greater than 90%)”.
C=CC(=O)N1[C@H](C)CN(c2nc(OCCN(CC)CC)nc3c(F)c(-c4c(C)ccc5[nH]ncc45)c(Cl)cc23)C[C@@H]1C [Compound 46, 1-((2R,6S)-4-(6-Chloro-2-(2-(Diethylamino)Ethoxy)-8-Fluoro-7-(5-Methyl-1H-Indazol-4-Yl)Quinazolin-4-Yl)-2,6-Dimethylpiperazin-1-Yl)Prop-2-En-1-One] was tested, and the Binding % was “++ (++ indicates binding activity from 50 to 90%)”.
C=CC(=O)N1[C@H](C)CN(c2nc(OCCN(CC)CC)nc3c(F)c(-c4c(C)ccc5cn[nH]c45)c(Cl)cc23)C[C@@H]1C [Compound 23, 1-((2R,6S)-4-(6-chloro-2-(2-(diethylamino)ethoxy)-8-fluoro-7-(6-methyl-1H-indazol-7-yl)quinazolin-4-yl)-2,6-dimethyl-piperazin-1-yl) prop-2-en-1-one] was tested, and the Binding % was “++ (++ indicates binding activity from 50 to 90%)”.
In the case of C=CC(=O)N1C[C@H](C)N(c2nc(N3CC(N(C)C)C3)nc3c(F)c(-c4c(C)ccc5cn[nH]c45)c(Cl)cc23)C[C@H]1C (atropisomer, axis not shown) [Compound 73, 1-((2R,5S)-4-((S)-6-chloro-2-(3-(dimethylamino)azetidin-1-yl)-8-fluoro-7-(6-methyl-1H-indazol-7-yl)quinazolin-4-yl)-2,5-dimethyl-piperazin-1-yl) prop-2-en-1-one], the Binding % is reported as “+ (+ indicates binding activity up to 50%)”.
For C=CC(=O)N1C[C@H](C)N(c2nc(OC3CCN(C4CC4)CC3)nc3c(F)c(-c4c(C)ccc5[nH]ncc45)c(Cl)cc23)C[C@H]1C [Compound 78, 1-((2R,5S)-4-(6-chloro-2-((1-cyclopropyl-piperidin-4-yl)oxy)-8-fluoro-7-(5-methyl-1H-indazol-4-yl)quinazolin-4-yl)-2,5-dimethyl-piperazin-1-yl) prop-2-en-1-one], the Binding % was “++ (++ indicates binding activity from 50 to 90%)”.
C=CC(=O)N1CCN(c2c(C#N)c(N3CC(N(C)C)C3)nc3c(F)c(-c4c(O)cccc4F)c(Cl)cc23)C[C@H]1C [Compound 76] was tested, and the Binding % was “+ (+ indicates binding activity up to 50%)”.

Same assay, conditions: covalent binding to KRAS G12C after a three minute incubation period
With C=CC(=O)N1C[C@H](C)N(c2nc(Oc3cnn(C)c3)nc3c(F)c(-c4c(O)cccc4F)c(Cl)cc23)C[C@H]1C [Compound 225, 1-((2R,5S)-4-(6-chloro-8-fluoro-7-(2-fluoro-6-hydroxyphenyl)-2-(1-methyl-1H-pyrazol-4-yloxy)quinazolin-4-yl)-2,5-dimethyl-piperazin-1-yl) prop-2-en-1-one] the Binding % was “++ (++ indicates binding activity from 50 to 90%)”.
In the case of C=CC(=O)N1C[C@H](C)N(c2nc(OCCCN(C)C)nc3c(F)c(-c4c(C)ccc5cn[nH]c45)c(Cl)cc23)C[C@H]1C [Compound 191, 1-((2R,5S)-4-(6-chloro-2-(3-(dimethylamino)propoxy)-8-fluoro-7-(6-methyl-1H-indazol-7-yl)quinazolin-4-yl)-2,5-dimethyl-piperazin-1-yl) prop-2-en-1-one], the Binding % is reported as “+++ (+++ indicates binding activity greater than 90%)”.
C=CC(=O)N1C[C@H](C)N(c2nc(N3CC4(CCCN(C)C4)C3)nc3c(F)c(-c4c(C)ccc5[nH]ncc45)c(Cl)cc23)C[C@H]1C [Compound 194, 1-((2R,5S)-4-(6-chloro-8-fluoro-7-(5-methyl-1H-indazol-4-yl)-2-(6-methyl-2,6-diazaspiro[3.5]nonan-2-yl)quinazolin-4-yl)-2,5-dimethyl-piperazin-1-yl) prop-2-en-1-one] was tested, and the Binding % was “++ (++ indicates binding activity from 50 to 90%)”.
For [2H]C([2H])([2H])N(C1CN(c2nc(N3C[C@@H](C)N(C(=O)C=C)C[C@@H]3C)c3cc(Cl)c(-c4c(O)cccc4F)c(F)c3n2)C1)C([2H])([2H])[2H] (atropisomer, axis not shown) [Compound 207, 1-((2R,5S)-4-(2-(3-(bis(triduetero-methyl)amino)azetidin-1-yl)-6-chloro-8-fluoro-7-((S)-2-fluoro-6-hydroxyphenyl)quinazolin-4-yl)-2,5-dimethyl-piperazin-1-yl) prop-2-en-1-one], the Binding % was “+++ (+++ indicates binding activity greater than 90%)”.
C=CC(=O)N1C[C@H](C)N(c2nc(N3CC4(CCOCC4)C3)nc3c(F)c(-c4c(C)ccc5[nH]ncc45)c(Cl)cc23)C[C@H]1C [Compound 162, 1-((2R,5S)-4-(6-chloro-8-fluoro-7-(5-methyl-1H-indazol-4-yl)-2-(7-oxa-2-azaspiro[3.5]nonan-2-yl)quinazolin-4-yl)-2,5-dimethyl-piperazin-1-yl) prop-2-en-1-one] was tested, and the Binding % was “+ (+ indicates binding activity greater than 0% and up to 50%)”.
For C=CC(=O)N1C[C@H](C)N(c2nc(N3CC(NC)C3)nc3c(F)c(-c4c(C)ccc5cn[nH]c45)c(Cl)cc23)C[C@H]1C (atropisomer, axis not shown) [Compound 109, 1-((2R,5S)-4-(6-chloro-8-fluoro-7-((S)-6-methyl-1H-indazol-7-yl)-2-(3-(methylamino)azetidin-1-yl)quinazolin-4-yl)-2,5-dimethyl-piperazin-1-yl) prop-2-en-1-one], the Binding % was “+ (+ indicates binding activity greater than 0% and up to 50%)”.
For C=CC(=O)N1C[C@H](C)N(c2nc(OCCCN(C)C)nc3c(F)c(-c4c(O)cccc4F)c(C(F)(F)F)cc23)C[C@H]1C [Compound 218, 1-((2R,5S)-4-(2-(3-(dimethylamino)propoxy)-8-fluoro-7-(2-fluoro-6-hydroxyphenyl)-6-(trifluoromethyl)quinazolin-4-yl)-2,5-dimethyl-piperazin-1-yl) prop-2-en-1-one], the Binding % was “+++ (+++ indicates binding activity greater than 90%)”.
C=CC(=O)N1C[C@H](C)N(c2nc(N3CC(C)(N(C)C)C3)nc3c(F)c(-c4c(O)cccc4F)c(Cl)cc23)C[C@H]1C [Compound 104, 1-((2R,5S)-4-(6-chloro-2-(3-(dimethylamino)-3-methylazetidin-1-yl)-8-fluoro-7-(2-fluoro-6-hydroxyphenyl)quinazolin-4-yl)-2,5-dimethyl-piperazin-1-yl) prop-2-en-1-one] was tested, and the Binding % was “+++ (+++ indicates binding activity greater than 90%)”.
For C[C@@H]1CN(c2nc(N3CC(N(C)C)C3)nc3c(F)c(-c4c(O)cccc4F)c(Cl)cc23)[C@@H](C)CN1C(=O)C#CCO [Compound 113, 1-((2R,5S)-4-(6-chloro-2-(3-(dimethylamino)azetidin-1-yl)-8-fluoro-7-(2-fluoro-6-hydroxyphenyl)quinazolin-4-yl)-2,5-dimethyl-piperazin-1-yl)-4-hydroxybut-2-yn-1-one], the Binding % was “+++ (+++ indicates binding activity greater than 90%)”.
In the case of C=CC(=O)N1C[C@H](C)N(c2nc(N3CC(N(C)C)C3)nc3c(F)c(-c4cc5ccccc5cc4O)c(Cl)cc23)C[C@H]1C [Compound 146, 1-((2R,5S)-4-(6-chloro-2-(3-(dimethylamino)azetidin-1-yl)-8-fluoro-7-(3-hydroxynaphthalen-2-yl)quinazolin-4-yl)-2,5-dimethyl-piperazin-1-yl) prop-2-en-1-one], the Binding % is reported as “+ (+ indicates binding activity greater than 0% and up to 50%)”.
With C=CC(=O)N1C[C@H](C)N(c2nc(N3CC4(CCN4C)C3)nc3c(F)c(-c4c(O)cccc4F)c(Cl)cc23)C[C@H]1C [Compound 184, 1-((2R,5S)-4-(6-chloro-8-fluoro-7-(2-fluoro-6-hydroxyphenyl)-2-(1-methyl-1,6-diazaspiro[3.3]heptan-6-yl)quinazolin-4-yl)-2,5-dimethyl-piperazin-1-yl) prop-2-en-1-one] the Binding % was “++ (++ indicates binding activity from 50 to 90%)”.
With C=CC(=O)N1C[C@H](C)N(c2nc(N3CC(N(C)C(C)C)C3)nc3c(F)c(-c4c(O)cccc4F)c(Cl)cc23)C[C@H]1C [Compound 99, 1-((2R,5S)-4-(6-chloro-8-fluoro-7-(2-fluoro-6-hydroxyphenyl)-2-(3-(isopropyl (methyl)amino)azetidin-1-yl)quinazolin-4-yl)-2,5-dimethyl-piperazin-1-yl) prop-2-en-1-one] the Binding % was “++ (++ indicates binding activity from 50 to 90%)”.
C=CC(=O)N1C[C@H](C)N(c2nc(OCCCN(C)C)nc3c(F)c(-c4c(C)ccc5[nH]ncc45)c(Cl)cc23)C[C@H]1C [Compound 199, 1-((2R,5S)-4-(6-chloro-2-(3-(dimethylamino)propoxy)-8-fluoro-7-(5-methyl-1H-indazol-4-yl)quinazolin-4-yl)-2,5-dimethyl-piperazin-1-yl) prop-2-en-1-one] was tested, and the Binding % was “++ (++ indicates binding activity from 50 to 90%)”.

Reference: US10646488B2 (Araxes Pharma LLC, priority 2016, dated 2020)
Note: test concentration or dose not given here.
